Records with an inconclusive call do not appear. Calls of active or inactive are those of the source.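 Rule for the calls: active = Green signal of the normal strain falls at least twice as much as red signal of the resistant mutant, with overall culture growth loss under a set limit; inconclusive = no clear call, values can overlap the other calls; inactive = the rest.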
Test system: E. coli WT ribosome GFP fluorescence, mixed culture, 24 h
Experiment: growth inhibition of wild-type GFP E. coli, dose response, h38 mutant RFP, cherry-pick (AID 977622)
[1] = E. coli mixed culture, 24 h, measured here: total growth OD600

Structure (SMILES)	AC50	AC50 [1] [µM]
COc1ccc(NC(=O)CSc2n[nH]c(-c3ccncc3)n2)c([N+](=O)[O-])c1	> 100 µM (inactive)	> 100
COC(=O)c1c(NC(=O)c2ccccc2C(=O)O)sc2c1CCC2	> 100 µM (inactive)	
COc1cccc(C(=O)NC2CC3CCCC(C2)N3S(=O)(=O)c2ccccc2)c1 (stereo not drawn)	> 100 µM (inactive)	41.4
CC[N+](CC)(CC#Cc1ccccc1)CC#Cc1ccccc1	> 100 µM (inactive)	> 100
COc1ccccc1CN1Cc2ccccc2Oc2ccccc2S1(=O)=O	> 100 µM (inactive)	
CC(=O)Nc1cccc(OCCCOc2cccc([N+](=O)[O-])c2)c1		> 100
COCCN(C(=O)c1ccccc1F)c1nnc(-c2ccc(OC)cc2)s1	> 100 µM (inactive)	> 100
O=C(NCCCn1ccnc1)c1sc2cc([N+](=O)[O-])ccc2c1Cl		> 100
Cn1cnc(CCNC(=O)C[C@H]2CC[C@@H]3[C@H](COC[C@H](O)CN3C(=O)Nc3ccc(Cl)cc3)O2)c1	> 100 µM (inactive)	
CC(C)(C)C1CCC(OCC(O)CN2CCN(c3ccccn3)CC2)CC1 (stereo not drawn)	> 100 µM (inactive)	44.7
Cc1cccc(CSCC(=O)N2CCN(S(=O)(=O)c3ccccc3C#N)CC2)c1	> 100 µM (inactive)	
CNC(=O)c1ccsc1NC(=O)c1ccc(S(=O)(=O)N2CCc3ccccc32)cc1		> 100
COc1cccc(S(=O)(=O)N2CCCCN3[C@H](C2)[C@H](c2ccc(C#CC(C)C)cc2)[C@@H]3CO)c1	> 100 µM (inactive)	
CN(C)C(CNS(=O)(=O)c1cc([N+](=O)[O-])ccc1Cl)c1ccco1 (stereo not drawn)	> 100 µM (inactive)	> 100
CCC(=O)Nc1nc2ccc(NC(=O)c3cc(OC)c(OC)c(OC)c3)cc2s1	> 100 µM (inactive)	
O=C1c2ccccc2C(=O)N1CCc1c[nH]c2ccccc12	> 100 µM (inactive)	> 100
O=c1[nH]c(C2CCN(S(=O)(=O)c3ccc4c(c3)OCCO4)CC2)nc2c1nnn2Cc1ccccc1F	> 100 µM (inactive)	
CC(CCC(=O)O)C1CC[C@@]2(C)C3C(=O)CC4C(C)(C)C(O)CC[C@]4(C)C3C(=O)C[C@]12C (stereo partly drawn)	> 100 µM (inactive)	> 100
O=C1c2cccc3cccc(c23)C(=O)N1CCCn1ccnc1	> 100 µM (inactive)	51.6
CN1C(=O)c2cc(NC(=O)c3cccc(F)c3)ccc2OC[C@H]2O[C@@H](CC(=O)N3CCc4ccccc4C3)CC[C@@H]21	> 100 µM (inactive)	
O=C(Nc1cccc(Cl)c1)N1C[C@@H]2[C@H](c3ccccc31)[C@@H](CO)N2CC1CCCCC1	> 100 µM (inactive)	50
c1ccc(-c2nc3c4ccccc4ccn3c2CN2CCOCC2)cc1	> 100 µM (inactive)	

Structure (SMILES)	AC50	AC50 [1] [µM]
O=[N+]([O-])c1ccc2nc(-c3ccccc3[N+](=O)[O-])[nH]c2c1	> 100 µM (inactive)	> 100
OC(COc1ccc(Cl)cc1)CN1CCN(c2ccccn2)CC1 (stereo not drawn)		> 100
COc1cccc(NC(=O)N(C)C[C@H]2Oc3ncc(C#Cc4cccnc4)cc3C(=O)N([C@H](C)CO)C[C@H]2C)c1		> 100
COc1ccc(C#Cc2ccc([C@H]3[C@@H](CO)N4CCCCN(C(=O)Nc5cccc(F)c5)C[C@H]34)cc2)cc1		> 100
CCCCCCCNC(=O)c1ccc(N2CCC3(CC2)OCCO3)c([N+](=O)[O-])c1		40.4
COc1ccc(CNS(=O)(=O)c2ccc3c(c2)NC(=O)C(C)S3)cc1 (stereo not drawn)	> 100 µM (inactive)	
COc1ccc(NC(=O)CN(c2ccccc2OC)S(=O)(=O)c2cccs2)cc1Cl		> 100
CCOC(=O)c1sc(Nc2cccc(Cl)c2)nc1C		> 100
Cc1nn2c(NCc3ccccn3)cc(C(C)C)nc2c1-c1ccccc1	> 100 µM (inactive)	
O=C(O)c1ccc(-c2nc(-c3ccccc3)cs2)cc1	> 100 µM (inactive)	
COc1ccc(OC)c(N(CC(=O)Nc2ccccc2F)S(=O)(=O)c2ccccc2)c1	> 100 µM (inactive)	
Cc1c(Cc2ccccc2)sc(NC(=O)Cc2ccccc2)c1C(N)=O	> 100 µM (inactive)	
COc1ccccc1C(=O)Nc1ccc2c(c1)nc1n2CCN(C2CCCCC2)C1	> 100 µM (inactive)	
COc1ccc(OC2C(=O)N(Cc3ccc4c(c3)OCO4)C2c2cccs2)cc1 (stereo not drawn)	> 100 µM (inactive)	
O=C(CCc1nc2ccccc2s1)OCC(=O)c1ccc[nH]1	> 100 µM (inactive)	
O=S1(=O)N[C@H](Cc2ccccc2)COc2cc(N3CCSCC3)ccc21		> 100
Cc1cccc(N2CCN(Cc3nc(-c4ccc(F)cc4F)oc3C)CC2)n1		> 100
COC(=O)c1c(NC(=O)CCC(=O)O)sc(Cc2ccccc2)c1C	> 100 µM (inactive)	18.8
Cc1ccc(S(=O)(=O)NCc2c(-c3ccccc3)noc2C)cc1	> 100 µM (inactive)	
COc1ccc(OCC(=O)N2c3ccccc3CC2C)c([N+](=O)[O-])c1 (stereo not drawn)	> 100 µM (inactive)	> 100
O=C(CSCc1c(Cl)cccc1Cl)Nc1cccnc1	> 100 µM (inactive)	> 100
COc1ccc(C#Cc2ccc([C@@H]3[C@@H](CO)N4CCCCN(C(=O)Nc5ccc(F)cc5)C[C@H]34)cc2)cc1		50.6

Structure (SMILES)	AC50	AC50 [1] [µM]
COc1cccc(-n2nnnc2SCC(=O)NCc2ccc3c(c2)OCO3)c1	> 100 µM (inactive)	
Cc1nn(-c2ccc(N3CCCCC3)nn2)c(C)c1CCC(=O)Nc1ccc(F)cc1	> 100 µM (inactive)	
Cc1ccccc1S(=O)(=O)NC(=O)C1(C)CCN1C(=O)C1(c2ccc(Cl)cc2)CC1 (stereo not drawn)	> 100 µM (inactive)	
Cc1cc(C(=O)OCC(=O)Nc2cccc(S(N)(=O)=O)c2)c2ccccc2n1	> 100 µM (inactive)	> 100
CCOc1ccc(-c2nc(-c3cccs3)c(CC(=O)O)s2)cc1OC		> 100
Cc1cc(C(N)=O)nn1-c1c(Cl)cc(Cl)cc1Cl		> 100
FC(F)(F)c1ccc(Cl)c(-n2c(Cc3cccs3)n[nH]c2=S)c1	> 100 µM (inactive)	
CN1c2ccc(C#Cc3cccnc3)cc2[C@@H]2[C@@H](CCN2C(=O)c2cccc(F)c2)[C@H]1CO	> 100 µM (inactive)	
Fc1ccc(Br)cc1SCCc1ccncc1		> 100
COc1ccc(C(=O)CSc2nc3ccccc3n2CC(=O)c2ccccc2)cc1	> 100 µM (inactive)	
COc1cc2nc(Nc3ccc(F)cc3)nc(N)c2cc1OC	> 100 µM (inactive)	
Clc1ccc(-c2cn(-c3ccccc3)c3[n+]2CCS3)cc1	> 100 µM (inactive)	
CCCN1C(=O)C(O)(c2c(C)[nH]c3ccccc23)c2ccccc21 (stereo not drawn)		> 100
CC(=O)OC1N=C(c2ccccc2Cl)c2cc(Br)ccc2NC1=O (stereo not drawn)		> 100
O=C(NCc1ccccc1)c1ccc(-c2cn[nH]c2)c2ccoc12		> 100
O=C(O)c1cccnc1SCc1ccccc1Cl	> 100 µM (inactive)	42.8
O=C(O)c1cc(-c2cccs2)nn1-c1cccc(Cl)c1	> 100 µM (inactive)	
CCCCc1ccc(S(=O)(=O)Nc2ccc(C)c(NS(C)(=O)=O)c2)cc1	> 100 µM (inactive)	51.4
O=C(NCCc1ccc(O)cc1)c1[nH]c(C(F)(F)F)nc1-c1ccccc1	> 100 µM (inactive)	> 100
Cc1ccc(N(CC(O)Cn2nc(C)cc2C)S(=O)(=O)c2ccc3ccccc3c2)cc1 (stereo not drawn)	> 100 µM (inactive)	43.1

Source: PubChem BioAssay AID977622 (Broad Institute, 2014)
